In patent publication US20220265817A1, “THERAPEUTIC COMPOSITIONS AND METHODS FOR TREATING HEPATITIS B” (priority 2017, published 2022):
Several values for one entry are separate records, joined by “and”; a condition that tells them apart may be missing. Equal entries are not always repeated. Where two headings read alike, the source gives them in different places.

Legend:
Assay in all cases: microbe, parasite or virus in culture
Type in all cases: cell-based
[1] = tested on: D type HBV in primary human hepatocytes (HBsAg)
Protocol: (§1) The mouse liver perfusion was applied to isolate PHHs. The isolated hepatocytes were further purified by Percoll. The cells were resuspended with culture media and seeded into the 96-well plates (6×10^4 cell/well) or 48-well plates (1.2×10^5 cell/well). The PHHs were infected with a D type HBV one day post seeding (day 1).
(§2) On day 2, the test compounds were diluted and added into the cell culture plates. The culture media containing the compounds were refreshed every other day. The cell culture supernatants were collected on day 8 for the HBV DNA and antigen determinations.
(§3) The compounds were tested at 7 concentrations, 3-fold dilution, in triplicate.
(§4) Two compounds were tested at 5×5 matrix, in triplicate plates.
(§5) HBsAg/HBeAg in the culture supernatants harvested on days 8 were measured by the HBsAg/HBeAg ELISA kit (Autobio) according to the manual. The samples were diluted with PBS to get the signal in the range of the standard curve. The inhibition rates were calculated with the formula below. The combination effect was analyzed by the MacSynergy software.
% Inh. HBsAg=[1-HBsAg quantity of sample/HBV quantity of DMSO control]×100.

[2] = tested on: D type HBV in primary human hepatocytes (HBeAg)
Protocol: as §1, §2, §3, §4, §5
% Inh. HBeAg=[1-HBeAg quantity of sample/HBV quantity of DMSO control]×100.

[3] = tested on: D type HBV in primary human hepatocytes; settings: for EC50: PHH
Protocol: as §1, §2, §3, §4
DNA in the culture supernatants harvested on days 8 were isolated with QIAamp 96 DNA Blood Kit (Qiagen-51161). For each sample, 100 μl of the culture supernatants was used to extract DNA. The DNA was eluted with 100 μl, 150 μl or 180 μl of AE. HBV DNA in the culture supernatants was quantified by qPCR. The combination effect was analyzed by the MacSynergy software. The primers are described below.

[4] = Hepatitis B virus, Hepatocyte, 432 h, read-out: Inhibitor B EC50
[5] = Hepatitis B virus, Hepatocyte, 456 h, read-out: Inhibitor A EC50

Molecule `CNC(=O)N[C@H]1CCOc2c(C(=O)Nc3ccc(F)c(F)c3)ccc(F)c21` [Compound 23] has an inhibition at 0.02469 µM ([1]; Hepatitis B virus, Hepatocyte, read-out: AVERAGE % INHIBITION HBsAg, compound 23 24.69 nM alone (TDF study)) of -13.9%, an inhibition at 0.024691 µM ([1]; Hepatitis B virus, Hepatocyte, read-out: AVERAGE % INHIBITION HBsAg, compound 23 24.691 nM alone (TAF study)) of 0.77% and an inhibition at 0.07407 µM ([1]; Hepatitis B virus, Hepatocyte, read-out: AVERAGE % INHIBITION HBsAg, compound 23 74.07 nM alone (TDF study)) of -10.9%. For the same molecule, the inhibition at 0.074074 µM ([1]; Hepatitis B virus, Hepatocyte, read-out: AVERAGE % INHIBITION HBsAg, compound 23 74.074 nM alone (TAF study)) was -5.27%, the inhibition at 0.22222 µM ([1]; Hepatitis B virus, Hepatocyte, read-out: AVERAGE % INHIBITION HBsAg, compound 23 222.22 nM alone (TAF study)) was 4.83% and the inhibition at 0.22222 µM ([1]; Hepatitis B virus, Hepatocyte, read-out: AVERAGE % INHIBITION HBsAg, compound 23 222.22 nM alone (TDF study)) was -11.6%. For the same molecule, the inhibition at 0.66667 µM ([1]; Hepatitis B virus, Hepatocyte, read-out: AVERAGE % INHIBITION HBsAg, compound 23 666.67 nM alone (TAF study)) was 1.95%, the inhibition at 0.66667 µM ([1]; Hepatitis B virus, Hepatocyte, read-out: AVERAGE % INHIBITION HBsAg, compound 23 666.67 nM alone (TDF study)) was -4.45% and the inhibition at 2 µM ([1]; Hepatitis B virus, Hepatocyte, read-out: AVERAGE % INHIBITION HBsAg, compound 23 2000.00 nM alone (TDF study)) was 0.48%. For the same molecule, the EC50 ([1]; Hepatitis B virus, Hepatocyte, read-out: Inhibitor B EC50) was 4360 nM, the inhibition at 0.02469 µM ([2]; Hepatitis B virus, Hepatocyte, read-out: AVERAGE % INHIBITION HBeAg, compound 23 24.69 nM alone) was -8.82% and the inhibition at 0.07407 µM ([2]; Hepatitis B virus, Hepatocyte, read-out: AVERAGE % INHIBITION HBeAg, compound 23 74.07 nM alone) was -6.36%. It also gave an inhibition at 0.22222 µM ([2]; Hepatitis B virus, Hepatocyte, read-out: AVERAGE % INHIBITION HBeAg, compound 23 222.22 nM alone) of -12.7%, an inhibition at 0.66667 µM ([2]; Hepatitis B virus, Hepatocyte, read-out: AVERAGE % INHIBITION HBeAg, compound 23 666.67 nM alone) of -7.94% and an inhibition at 2 µM ([2]; Hepatitis B virus, Hepatocyte, read-out: AVERAGE % INHIBITION HBeAg, compound 23 2000.00 nM alone) of -1.09%. For the same molecule, the EC50 ([2]; Hepatitis B virus, Hepatocyte, HBeAg, PHH, determined in an earlier separate experiment, read-out: Inhibitor B EC50) was 4530 nM, the inhibition at 0.02469 µM ([3]; Hepatitis B virus, Hepatocyte, read-out: AVERAGE % […] DNA, compound 23 24.69 nM alone (TDF study)) was -15.3% and the inhibition at 0.024691 µM ([3]; Hepatitis B virus, Hepatocyte, read-out: AVERAGE % […] DNA, compound 23 24.691 nM alone (TAF study)) was -4.57%. For the same molecule, the inhibition at 0.07407 µM ([3]; Hepatitis B virus, Hepatocyte, read-out: AVERAGE % […] DNA, compound 23 74.07 nM alone (TDF study)) was -36.6%, the inhibition at 0.074074 µM ([3]; Hepatitis B virus, Hepatocyte, read-out: AVERAGE % […] DNA, compound 23 74.074 nM alone (TAF study)) was -2.49% and the inhibition at 0.22222 µM ([3]; Hepatitis B virus, Hepatocyte, read-out: AVERAGE % […] DNA, compound 23 222.22 nM alone (TAF study)) was 11.1%. For the same molecule, the inhibition at 0.22222 µM ([3]; Hepatitis B virus, Hepatocyte, read-out: AVERAGE % […] DNA, compound 23 222.22 nM alone (TDF study)) was 0.78%, the inhibition at 0.66667 µM ([3]; Hepatitis B virus, Hepatocyte, read-out: AVERAGE % […] DNA, compound 23 666.67 nM alone (TAF study)) was 30.5% and the inhibition at 0.66667 µM ([3]; Hepatitis B virus, Hepatocyte, read-out: AVERAGE % […] DNA, compound 23 666.67 nM alone (TDF study)) was 30.4%. It also gave an inhibition at 2 µM ([3]; Hepatitis B virus, Hepatocyte, read-out: AVERAGE % […] DNA, compound 23 2000 nM alone (TAF study)) of 58.1%, an inhibition at 2 µM ([3]; Hepatitis B virus, Hepatocyte, read-out: AVERAGE % […] DNA, compound 23 2000.00 nM alone (TDF study)) of 70% and an EC50 ([3]; Hepatitis B virus, Hepatocyte, HBV DNA, determined in an earlier separate experiment, read-out: Inhibitor B EC50) of 230 nM.

`COCCCOc1cc2c(cc1OC)-c1cc(=O)c(C(=O)O)cn1C(C(C)C)C2` (centres unmarked) [Compound 25] was tested, and the “AVERAGE % INHIBITION (HBsAg)” value ([1]; COMPOUND 25 0.12 nM alone) was 3.68% and 9.32%, the “AVERAGE % INHIBITION (HBsAg)” value ([1]; COMPOUND 25 3.33 nM alone) was 20.81% and the “AVERAGE % INHIBITION (HBsAg)” value ([1]; COMPOUND 25 10.00 nM alone) was 42.95%. For the same molecule, the EC50 [1, 4] was 4.5 nM, the EC50 [1, 5] was 4.5 nM and the inhibition at 0.12 µM ([1]; Hepatitis B virus, Hepatocyte, COMPOUND 25 0.12 μM alone) was -5.64%. The inhibition at 0.37 µM ([1]; Hepatitis B virus, Hepatocyte, COMPOUND 25 0.37 μM alone) was -7.52%, the inhibition at 0.00333 µM ([1]; Hepatitis B virus, Hepatocyte, read-out: AVERAGE % INHIBITION HBsAg, COMPOUND 25 3.33 nM alone) was 13.1% and the inhibition at 0.01 µM ([1]; Hepatitis B virus, Hepatocyte, read-out: AVERAGE % INHIBITION HBsAg, COMPOUND 25 10.00 nM alone) was 33%. It also gave an inhibition at 3.33 µM ([1]; Hepatitis B virus, Hepatocyte, read-out: AVERAGE % INHIBITION HBsAg, COMPOUND 25 3.33 μM alone) of 8.81%, an inhibition at 10 µM ([1]; Hepatitis B virus, Hepatocyte, read-out: AVERAGE % INHIBITION HBsAg, COMPOUND 25 10.00 μM alone) of 42.5% and an EC50 ([1]; Hepatitis B virus, Hepatocyte, read-out: Inhibitor A EC50 HBsAg) of 4.5 nM. The “AVERAGE % INHIBITION HBeAg” value ([2]; COMPOUND 25 0.12 nM alone) was 4.8%, the “AVERAGE % INHIBITION HBeAg” value ([2]; COMPOUND 25 0.37 nM alone) was −0.51% and 2.9% and the “AVERAGE % INHIBITION HBeAg” value ([2]; COMPOUND 25 3.33 nM alone) was 13.94%. The “AVERAGE % INHIBITION HBeAg” value ([2]; COMPOUND 25 10.00 nM alone) was 28.42%, the EC50 [2, 4] was 5.75 nM and the EC50 [2, 5] was 5.75 nM. For the same molecule, the inhibition at 0.00012 µM ([2]; Hepatitis B virus, Hepatocyte, read-out: AVERAGE % INHIBITION HBeAg, COMPOUND 25 0.12 nM alone) was 5.33%, the inhibition at 0.00333 µM ([2]; Hepatitis B virus, Hepatocyte, read-out: AVERAGE % INHIBITION HBeAg, COMPOUND 25 3.33 nM alone) was 8.74% and the inhibition at 0.01 µM ([2]; Hepatitis B virus, Hepatocyte, read-out: AVERAGE % INHIBITION HBeAg, COMPOUND 25 10.00 nM alone) was 33.2%. The inhibition at 0.12 µM ([2]; Hepatitis B virus, Hepatocyte, read-out: AVERAGE % INHIBITION HBeAg, COMPOUND 25 0.12 μM alone) was -11.2%, the inhibition at 0.37 µM ([2]; Hepatitis B virus, Hepatocyte, read-out: AVERAGE % INHIBITION HBeAg, COMPOUND 25 0.37 μM alone) was -13.8% and the inhibition at 3.33 µM ([2]; Hepatitis B virus, Hepatocyte, read-out: AVERAGE % INHIBITION HBeAg, COMPOUND 25 3.33 μM alone) was -7.31%. For the same molecule, the inhibition at 10 µM ([2]; Hepatitis B virus, Hepatocyte, read-out: AVERAGE % INHIBITION HBeAg, COMPOUND 25 10.00 μM alone) was 22%, the EC50 ([2]; Hepatitis B virus, Hepatocyte, read-out: Inhibitor A EC50 HBeAg) was 5.75 nM and the “AVERAGE % INHIBITION HBV DNA” value ([3]; COMPOUND 25 0.37 nM alone) was −51.8% and −46.48%. The “AVERAGE % INHIBITION HBV DNA” value ([3]; COMPOUND 25 3.33 nM alone) was 16.41%, the “AVERAGE % INHIBITION HBV DNA” value ([3]; COMPOUND 25 10.00 nM alone) was 37.39% and the EC50 ([3]; Hepatitis B virus, Hepatocyte, 432 h, HBV DNA endpoint, determined in an earlier separate experiment (Table 18d), read-out: Inhibitor B EC50) was 0.654 nM. For the same molecule, the EC50 ([3]; Hepatitis B virus, Hepatocyte, 456 h, HBV DNA endpoint, determined in an earlier separate experiment (Table 19d), read-out: Inhibitor A EC50) was 0.654 nM, the inhibition at 0.00333 µM ([3]; Hepatitis B virus, Hepatocyte, read-out: AVERAGE % […] DNA, COMPOUND 25 3.33 nM alone, read-out: AVERAGE % INHIBITION HBV DNA) was 15.2% and the inhibition at 0.01 µM ([3]; Hepatitis B virus, Hepatocyte, read-out: AVERAGE % […] DNA, COMPOUND 25 10.00 nM alone, read-out: AVERAGE % INHIBITION HBV DNA) was 28%. For the same molecule, the inhibition at 0.12 µM ([3]; Hepatitis B virus, Hepatocyte, read-out: AVERAGE % […] DNA, compound 25 0.12 μM alone) was -14.4%, the inhibition at 0.37 µM ([3]; Hepatitis B virus, Hepatocyte, read-out: AVERAGE % […] DNA, compound 25 0.37 μM alone) was -9.87% and the inhibition at 3.33 µM ([3]; Hepatitis B virus, Hepatocyte, read-out: AVERAGE % […] DNA, compound 25 3.33 μM alone) was 32.6%. For the same molecule, the inhibition at 10 µM ([3]; Hepatitis B virus, Hepatocyte, read-out: AVERAGE % […] DNA, compound 25 10.00 μM alone) was 53.8% and the EC50 ([3]; Hepatitis B virus, Hepatocyte, determined in an earlier separate experiment, read-out: Inhibitor A EC50 HBV DNA) was 0.653 nM.
